Data: the supplement of paper PMC10307832

What was measured:
Test in all cases: relative viability (nuclei count vs DMSO), 5 days (fraction); higher = more cells survive
NCI-H1666 = test system: NCI-H1666
Method in brief: (§1)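 Lung cancer cell lines in 1536-well plates got either a single drug or a fixed anchor-drug dose together with five library-drug doses (not always all listed) in √10 steps, by pin tool, on the day after seeding. Nuclei were counted after 5 days, and relative viability is the treated-to-vehicle ratio of nuclei counts. Values are medians of duplicate plates.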

EPLC-272H = test system: EPLC-272H
Method in brief: as §1

PC-3 [JPC-3] = test system: PC-3 [JPC-3]
Method in brief: as §1

EKVX = test system: EKVX
Method in brief: as §1

NCI-H2342 = test system: NCI-H2342
Method in brief: as §1

LU99A = test system: LU99A
Method in brief: as §1

HCC-827 = test system: HCC-827
Method in brief: as §1

NCI-H1975 = test system: NCI-H1975
Method in brief: as §1

NCI-H2085 = test system: NCI-H2085
Method in brief: as §1

LOU-NH91 = test system: LOU-NH91
Method in brief: as §1

201T = test system: 201T
Method in brief: as §1

HOP-62 = test system: HOP-62
Method in brief: as §1

H3255 = test system: H3255
Method in brief: as §1

NCI-H2087 = test system: NCI-H2087
Method in brief: as §1

NCI-H1437 = test system: NCI-H1437
Method in brief: as §1

HCC-44 = test system: HCC-44
Method in brief: as §1

NCI-H358 = test system: NCI-H358
Method in brief: as §1

LCLC-97TM1 = test system: LCLC-97TM1
Method in brief: as §1

SW 1573 = test system: SW 1573
Method in brief: as §1

NCI-H647 = test system: NCI-H647
Method in brief: as §1

COR-L 105 = test system: COR-L 105
Method in brief: as §1

NCI-H1395 = test system: NCI-H1395
Method in brief: as §1

BEN = test system: BEN
Method in brief: as §1

NCI-H2126 = test system: NCI-H2126
Method in brief: as §1

Clc1ccc(Nc2nnc(Cc3ccncc3)c3ccccc23)cc1 [Vatalanib] + Nc1nc2[nH]cc(CCc3ccc(C(=O)N[C@@H](CCC(=O)O)C(=O)O)cc3)c2c(=O)[nH]1 [Pemetrexed] (partner 0.2 µM) was tested, and the relative viability (NCI-H1666; first compound 0.04 µM) was 0.845, the relative viability (NCI-H1666; first compound 0.1265 µM) was 0.844 and the relative viability (NCI-H1666; first compound 0.4 µM) was 0.843. For the same compound, the relative viability (NCI-H1666; first compound 1.265 µM) was 0.799, the relative viability (NCI-H1666; first compound 4 µM) was 0.901 and the relative viability (EPLC-272H; first compound 0.04 µM) was 0.349. It also gave a relative viability (EPLC-272H; first compound 0.1265 µM) of 0.334, a relative viability (EPLC-272H; first compound 0.4 µM) of 0.781 and a relative viability (EPLC-272H; first compound 1.265 µM) of 0.295. For the same compound, the relative viability (EPLC-272H; first compound 4 µM) was 0.376, the relative viability (PC-3 [JPC-3]; first compound 0.04 µM) was 1.02 and the relative viability (PC-3 [JPC-3]; first compound 0.1265 µM) was 0.943. It also gave a relative viability (PC-3 [JPC-3]; first compound 0.4 µM) of 0.803, a relative viability (PC-3 [JPC-3]; first compound 1.265 µM) of 0.456 and a relative viability (PC-3 [JPC-3]; first compound 4 µM) of 0.964. For the same compound, the relative viability (EKVX; first compound 0.04 µM) was 0.416, the relative viability (EKVX; first compound 0.1265 µM) was 0.425 and the relative viability (EKVX; first compound 0.4 µM) was 0.393. It also gave a relative viability (EKVX; first compound 1.265 µM) of 0.339, a relative viability (EKVX; first compound 4 µM) of 0.365 and a relative viability (NCI-H2342; first compound 0.04 µM) of 0.726. For the same compound, the relative viability (NCI-H2342; first compound 0.1265 µM) was 0.701, the relative viability (NCI-H2342; first compound 0.4 µM) was 0.669 and the relative viability (NCI-H2342; first compound 1.265 µM) was 0.769. For the same compound, the relative viability (NCI-H2342; first compound 4 µM) was 0.773, the relative viability (LU99A; first compound 0.04 µM) was 0.182 and the relative viability (LU99A; first compound 0.1265 µM) was 0.162. It also gave a relative viability (LU99A; first compound 0.4 µM) of 0.17, a relative viability (LU99A; first compound 1.265 µM) of 0.189 and a relative viability (LU99A; first compound 4 µM) of 0.162. The relative viability (HCC-827; first compound 0.04 µM) was 0.241, the relative viability (HCC-827; first compound 0.1265 µM) was 0.232 and the relative viability (HCC-827; first compound 1.265 µM) was 0.263. For the same compound, the relative viability (HCC-827; first compound 4 µM) was 0.231, the relative viability (NCI-H1975; first compound 0.04 µM) was 0.265 and the relative viability (NCI-H1975; first compound 0.1265 µM) was 0.305. The relative viability (NCI-H1975; first compound 0.4 µM) was 0.297, the relative viability (NCI-H1975; first compound 1.265 µM) was 0.28 and the relative viability (NCI-H1975; first compound 4 µM) was 0.286. For the same compound, the relative viability (NCI-H2085; first compound 0.04 µM) was 0.844, the relative viability (NCI-H2085; first compound 0.1265 µM) was 0.842 and the relative viability (NCI-H2085; first compound 0.4 µM) was 0.976. For the same compound, the relative viability (NCI-H2085; first compound 1.265 µM) was 0.892, the relative viability (NCI-H2085; first compound 4 µM) was 0.821 and the relative viability (LOU-NH91; first compound 0.04 µM) was 0.417. For the same compound, the relative viability (LOU-NH91; first compound 0.1265 µM) was 0.378, the relative viability (LOU-NH91; first compound 0.4 µM) was 0.373 and the relative viability (LOU-NH91; first compound 1.265 µM) was 0.366. The relative viability (LOU-NH91; first compound 4 µM) was 0.361, the relative viability (201T; first compound 0.04 µM) was 0.305 and the relative viability (201T; first compound 0.1265 µM) was 0.335. The relative viability (201T; first compound 0.4 µM) was 0.337, the relative viability (201T; first compound 1.265 µM) was 0.359 and the relative viability (201T; first compound 4 µM) was 0.311. For the same compound, the relative viability (HOP-62; first compound 0.04 µM) was 0.273, the relative viability (HOP-62; first compound 0.1265 µM) was 0.336 and the relative viability (HOP-62; first compound 0.4 µM) was 0.277. The relative viability (HOP-62; first compound 1.265 µM) was 0.275, the relative viability (HOP-62; first compound 4 µM) was 0.349 and the relative viability (H3255; first compound 0.04 µM) was 0.543. It also gave a relative viability (H3255; first compound 0.1265 µM) of 0.536, a relative viability (H3255; first compound 0.4 µM) of 0.529 and a relative viability (H3255; first compound 1.265 µM) of 0.512. It also gave a relative viability (H3255; first compound 4 µM) of 0.523, a relative viability (NCI-H2087; first compound 0.04 µM) of 0.666 and a relative viability (NCI-H2087; first compound 0.1265 µM) of 0.659. The relative viability (NCI-H2087; first compound 0.4 µM) was 0.685, the relative viability (NCI-H2087; first compound 1.265 µM) was 0.64 and the relative viability (NCI-H2087; first compound 4 µM) was 0.682. It also gave a relative viability (NCI-H1437; first compound 0.04 µM) of 0.33, a relative viability (NCI-H1437; first compound 0.1265 µM) of 0.342 and a relative viability (NCI-H1437; first compound 0.4 µM) of 0.328. For the same compound, the relative viability (NCI-H1437; first compound 1.265 µM) was 0.26, the relative viability (NCI-H1437; first compound 4 µM) was 0.275 and the relative viability (HCC-44; first compound 0.04 µM) was 0.593. The relative viability (HCC-44; first compound 0.1265 µM) was 0.61, the relative viability (HCC-44; first compound 0.4 µM) was 0.673 and the relative viability (HCC-44; first compound 1.265 µM) was 0.638. It also gave a relative viability (HCC-44; first compound 4 µM) of 0.683, a relative viability (NCI-H358; first compound 0.04 µM) of 0.158 and a relative viability (NCI-H358; first compound 0.1265 µM) of 0.149. It also gave a relative viability (NCI-H358; first compound 0.4 µM) of 0.16, a relative viability (NCI-H358; first compound 1.265 µM) of 0.181 and a relative viability (NCI-H358; first compound 4 µM) of 0.157. The relative viability (LCLC-97TM1; first compound 0.04 µM) was 0.2, the relative viability (LCLC-97TM1; first compound 0.1265 µM) was 0.177 and the relative viability (LCLC-97TM1; first compound 0.4 µM) was 0.177. The relative viability (LCLC-97TM1; first compound 1.265 µM) was 0.149, the relative viability (LCLC-97TM1; first compound 4 µM) was 0.172 and the relative viability (SW 1573; first compound 0.1265 µM) was 0.72. For the same compound, the relative viability (SW 1573; first compound 0.4 µM) was 0.975, the relative viability (SW 1573; first compound 1.265 µM) was 0.771 and the relative viability (SW 1573; first compound 4 µM) was 0.794. The relative viability (NCI-H647; first compound 0.04 µM) was 0.192, the relative viability (NCI-H647; first compound 0.1265 µM) was 0.163 and the relative viability (NCI-H647; first compound 0.4 µM) was 0.163. For the same compound, the relative viability (NCI-H647; first compound 1.265 µM) was 0.187, the relative viability (NCI-H647; first compound 4 µM) was 0.19 and the relative viability (COR-L 105; first compound 0.04 µM) was 1.34. It also gave a relative viability (COR-L 105; first compound 0.1265 µM) of 1.1, a relative viability (COR-L 105; first compound 0.4 µM) of 1.2 and a relative viability (COR-L 105; first compound 1.265 µM) of 1.15. For the same compound, the relative viability (COR-L 105; first compound 4 µM) was 1.04, the relative viability (NCI-H1395; first compound 0.04 µM) was 0.855 and the relative viability (NCI-H1395; first compound 0.1265 µM) was 0.764. The relative viability (NCI-H1395; first compound 0.4 µM) was 0.767, the relative viability (NCI-H1395; first compound 4 µM) was 0.842 and the relative viability (BEN; first compound 0.04 µM) was 0.662. The relative viability (BEN; first compound 0.1265 µM) was 0.659, the relative viability (BEN; first compound 0.4 µM) was 0.443 and the relative viability (BEN; first compound 1.265 µM) was 0.681. The relative viability (BEN; first compound 4 µM) was 0.743, the relative viability (NCI-H2126; first compound 0.04 µM) was 0.68 and the relative viability (NCI-H2126; first compound 0.1265 µM) was 0.668. It also gave a relative viability (NCI-H2126; first compound 0.4 µM) of 0.731, a relative viability (NCI-H2126; first compound 1.265 µM) of 0.592 and a relative viability (NCI-H2126; first compound 4 µM) of 0.602.
